Assay results from article PMC12668308, “A Novel Antimalarial Agent that Inhibits Protein Synthesis in Plasmodium falciparum” (Angewandte Chemie (International Ed. in English), 2025).

Key:
3D7^WT = assay: [3H]-hypoxanthine incorporation assay; assay type: cell-based; conditions: Plasmodium falciparum, 3D7; 72-h assay; mean±s.d.; read-out: 3D7^WT IC50
Method: ^[a] 72-h [^3H] hypoxanthhine incorporation assay; Data is expressed as mean±s.d.. The assay was performed in three independent biological experiments, each in biological duplicates.
P. falciparum asexual blood stage parasites were cultured in human red blood cells (RBC, Blutspende SRK, Zurich) at a hematocrit of 5% in RPMI 1640 medium. The RPMI 1640 medium (ThermoFisher Scientific #51800−043) was supplemented with the following: 24 mM NaHCO3 (pH 7.3, Sigma-Aldrich #31437−500G-R), 25 mM Hepes (Sigma-Aldrich #H4034−500G), 0.36 mM hypoxanthine (Sigma-Aldrich # H9377−25G), 100 µg mL^-1 neomycin (Sigma-Aldrich #N6386−100G) and 0.5% Albumax II (Thermo Fisher #11021−045). Additionally, 2 mM choline chloride (279 mg/L, Sigma-Aldrich #C7527−100G) was added to the culture to block the induction of sexual commitment as described. ^[31^] The RPMI 1640 medium and components were dissolved in water (Milli-Q purified), stirred for at least 3 h, and then sterile filtered (0.22 μm pore size) with a bottle top filter (Corning # 431118). Parasite cultures were maintained in an atmosphere of 3% O2, 4% CO2, and 93% N2 in air-tight chambers at 37 °C. The [^3H]-hypoxanthine incorporation assay was used to test compound activity in the specific parasite lines as described.^[32^] Briefly, compounds were dissolved in DMSO (10 mM) and diluted in a hypoxanthine-free culture medium. A limiting dilution was performed over a 64-fold range (6-step twofold dilution) in a 96-well plate in duplicates. For every starting concentration, a limiting dilution was performed over a 64-fold range (6-step twofold dilution) in a 96-well plate in two biological duplicates. Parasites were added at 100 µL to each well containing the compound to obtain a final parasitemia of 0.3% and haematocrit of 1.25%. The plates were incubated for 48 h before 0.25 µCi of [^3H]-hypoxanthine was added per well for an additional 24 h. Parasites were harvested on a glass-fiber filter with a Microbeta FilterMate cell harvester (Perkin Elmer, Waltham, USA) and radioactivity was counted using a MicroBeta2 liquid scintillation counter (Perkin Elmer, Waltham, US). The results were recorded, processed by subtraction of the mean background signal obtained from the uninfected RBC controls and expressed as percentage of untreated controls. The fifty percent inhibitory concentration (IC50) was calculated by using nonlinear, four parameter (variable slope) curve fitting as described ^[33^] after importing into GraphPad Prism (version 8.3.0).

[1] = system: 40S ribosomal protein S24 (W7KAD9); assay: iSPP profiling, P. falciparum lysate; assay type: binding, Plasmodium falciparum
Method: (§1) P. falciparum NF54 lysates were extracted as described in ^[26^] . The parasite asynchronous culture was extracted once 3-5% parasitemia was reached. Saponin lysis was done as described in 2.2.10. Once the parasite pellet was obtained, 2.5 volumes of ice-cold lysis buffer (50 mM Tris/HCl pH 7.5 (Avantor), 5% glycerol (Sigma-Aldrich), 150 mM NaCl (Carl Roth), 1.5 mM MgCl2 (Sigma-Aldrich), 1 mM DTT (Carl Roth), 0.8% IGEPAL CA-630 (Sigma-Aldrich), 1X Halt Protease and Phosphatase Inhibitor-Cocktails EDTA-free (Thermo Fisher Scientific)) was added to the parasite pellet. The lysate solution was subjected to three cycles of flash freeze-thaw with liquid nitrogen and ddH2O at RT. The lysates were centrifuged at 20,000 g for 20 minutes at 4 °C. The soluble protein fraction (supernatant) was collected and the protein content was quantified using the BCA assay (Pierce™ BCA Protein Assay Kit, Thermo Fisher Scientific). The lysate was stored at -80 °C until further use.
(§2) The P. falciparum lysate was thawed on ice and diluted to 0.8 mg/mL. […] Subsequently, the samples were incubated at room temperature for 30 minutes using a rotating mixer. After distribution into a 96-well plate, the samples were treated with increasing concentrations of A.E.A. (v/v) ranging from 14% to 28% (14, 16, 18, 20, 22, 24, 26, and 28%). Following a 20-minute incubation at 37°C with shaking at 750 rpm, the samples were centrifuged at 4400 g for 35 minutes to remove precipitated proteins. The soluble fractions were then pooled in equal volumes into a single sample using the Bravo Automated Liquid Handling Platform. The pooled samples were subsequently prepared for LC-MS/MS analysis.
(§3) The raw LFQ-DIA intensity values of biological replicates across all conditions were normalized to the median abundance using Excel. The normalized values were then log2 transformed in Perseus (v2.0.10.0).^[58^] Missing values were imputed from a normal distribution (width 0.3, down shift 1.5), and p-values were obtained using a two-sample t-test over replicates with a permutation-based false discovery rate correction (FDR 0.05). Volcano plots were generated in RStudio using the EnhancedVolcano package (v. 1.20.0), ^[59^] plotting proteins by statistical significance (y-axis: –Log10 p-value) versus the magnitude of change (x-axis: log2 fold change of protein intensities for each compound condition relative to the vehicle control). The heatmap was generated in Perseus (v2.0.10.0). Dose-dependent curves were generated using normalized protein intensity values, expressed as a ratio to the vehicle control. Plots were created in GraphPad Prism (v8.3.0) using a nonlinear regression model.

[2] = system: Uncharacterized protein (W7JXC3); assay: iSPP profiling, P. falciparum lysate; assay type: binding, Plasmodium falciparum
Method: as §1, §2, §3

[3] = system: dolichyl-diphosphooligosaccharide--protein glycotransferase (W7K3H0); assay: iSPP profiling, P. falciparum lysate; assay type: binding, Plasmodium falciparum
Method: as §1, §2, §3

[4] = system: 60S ribosomal protein L7 (W7KAU4); assay: iSPP profiling, P. falciparum lysate; assay type: binding, Plasmodium falciparum

For CN1CCN(Cc2ccc(O)c(NC(=O)c3cccc(Oc4cc(C(F)(F)F)ccn4)c3)c2)CC1 [Compound 31, N-(2-hydroxy-5-((4-methylpiperazin-1-yl)methyl)phenyl)-3-((4-(trifluoromethyl)pyridin-2-yl)oxy)benzamide], which IC50 (3D7^WT) is on record?
The IC50 was 2.4 ± 0.3 nM.

And the log2FC ([1]; 10 µM)?
Its log2FC is 0.51.

What about the log2FC ([1]; 50 µM) of the same molecule?
Its log2FC is 0.70.

And the log2FC ([1]; 100 µM)?
The log2FC was 0.57.

And the log2FC ([1]; 10^-2 µM)?
The log2FC was 0.44.

And the log2FC ([1]; 10^-3 µM)?
Its log2FC is 0.27.

And the log2FC ([2]; 10 µM)?
Its log2FC is 0.50.

And the log2FC ([2]; 50 µM)?
The log2FC was 0.70.

What about the log2FC ([2]; 100 µM) of the same molecule?
The log2FC was 0.40.

What about the log2FC ([2]; 10^-2 µM) of the same molecule?
The log2FC was 0.36.

What about the log2FC ([2]; 10^-3 µM) of the same molecule?
The log2FC was 0.02.

What about the log2FC ([3]; 10 µM) of the same molecule?
Its log2FC is 0.53.

And the log2FC ([3]; 50 µM)?
Its log2FC is 0.72.

And the log2FC ([3]; 100 µM)?
The log2FC was 0.44.

What about the log2FC ([3]; 10^-2 µM) of the same molecule?
The log2FC was 0.59.

And the log2FC ([4]; 10 µM)?
The log2FC was 0.75.

What about the log2FC ([4]; 50 µM) of the same molecule?
Its log2FC is 0.94.

What about the log2FC ([4]; 100 µM) of the same molecule?
The log2FC was 0.74.

What about the log2FC ([4]; 10^-2 µM) of the same molecule?
Its log2FC is 0.69.

What about the log2FC ([4]; 10^-3 µM) of the same molecule?
The log2FC was 0.33.
